The record followed here is patent US12570666B2, “Furoindazole derivatives” (Bayer Aktiengesellschaft, priority 2019, dated 2026).

pIC50: −log10 of the molar value.

Experiment [1] has as its system mouse CFA model of inflammation. The experiment in a line: In vivo assay 2: CFA pain model, dynamic weight-bearing (DWB). To be noted: DWB 24 h after CFA. As for the experimental part:
In Vivo Assay 2: Effects of Example 3-2 in the CFA Pain Model
The efficacy of Example 3-2 in vivo on inflammatory pain was measured in inflamed paws after administration of complete Freund's adjuvant (CFA) (24 h) in the dynamic weight-bearing (DWB) model. The effects of repeated preventive treatment with Example 3-2 on pain following repeated oral administration (3×) in the mouse CFA model of inflammation were investigated using a preventive setting. The GPR84 antagonist Example 3-2 (20 or 60 mg/kg, 3× doses) was administered 2 h before injection of CFA and 6-8 h later at day 0. At 24 h after CFA application, the third dose of Example 3-2 was given 2 h before DWB testing. Statistical analysis was performed with one-way analysis of variance, followed by Bonferroni's multiple comparison test against vehicle control groups using the GraphPad PRISM software, *p<0.05.

The subject of a further experiment is rat DHT-PCOS model. The experiment in a line: In vivo assay 1: DHT driven rat PCOS model. On the set-up: species or system Han-Wistar rats. To be noted: 26 days of drug administration. As for the experimental part: In Vivo Assay 1: GPR84 Ligand and Antagonist Characterization in PCOS Model
The efficacy of Example 3-2 in vivo on the treatment of POCS was measured in the DHT driven rat PCOS model. At 3 weeks of age, Han-Wistar rats were randomly divided into three experimental groups [control (n=10), DHT (n=10), and DHT plus Example 3-2 (n=10)] and implanted s.c. with 60-d continuous-DHT-release pellets (80 μg/d, Bayer AG, Germany). The dose of DHT was chosen to mimic the hyperandrogenic state in women with PCOS. Controls received identical pellets lacking the bioactive DHT molecule. Animal received a standard chow, only for the last week standard show was replaced by a high fat diet. Rats were weighted bi-weekly from 21 d of age. The study was concluded after 26 days of drug administration. […] Statistical analysis was performed with one-way analysis of variance, followed by Bonferroni's multiple comparison test against vehicle control groups using the GraphPad PRISM software, *p<0.05.

The target of a further experiment is T1, human GPR84 receptor (Homo sapiens, UniProt Q9NQS5).
T1 construct: frozen aliquots prepared by acCELLerate; host or cells: CHO-K1
T1 sequence (Q9NQS5 whole entry): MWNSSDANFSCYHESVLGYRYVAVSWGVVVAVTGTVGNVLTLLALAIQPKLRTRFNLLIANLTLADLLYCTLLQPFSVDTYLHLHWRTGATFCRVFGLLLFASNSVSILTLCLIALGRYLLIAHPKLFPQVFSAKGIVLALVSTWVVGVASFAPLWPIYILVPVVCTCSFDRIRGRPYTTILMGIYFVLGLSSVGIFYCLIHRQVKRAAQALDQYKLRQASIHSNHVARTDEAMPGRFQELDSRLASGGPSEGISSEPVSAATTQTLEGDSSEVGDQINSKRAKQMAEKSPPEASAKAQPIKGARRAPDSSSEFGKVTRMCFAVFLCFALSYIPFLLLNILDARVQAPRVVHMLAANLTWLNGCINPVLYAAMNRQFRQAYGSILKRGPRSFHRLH
As to the kind of experiment: cAMP HTRF assay for identification of cellular GPR84 antagonists. Type of experiment: cell-based. To be noted: CHO-K1 cells stably expressing human GPR84; Forskolin + agonist 6-OAU (EC80); average or median values. In a few lines: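 Forskolin-stimulated CHO-K1 cells stably expressing human GPR84, agonist-suppressed cAMP measured by HTRF (665/620 ratio) after lysis. Compounds at 11 concentrations, 20 μM to 0.07 nM, duplicate; normalized to DMSO and no-agonist controls; IC50 by 4-parameter fit.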

On to `Cc1c(C(=O)NC[C@@H]2CCCO2)oc2c1-c1nn(Cc3ccccn3)cc1CC2` [Example 3-2, 8-methyl-2-(pyridin-2-ylmethyl)-N-[(2S)-tetrahydrofuran-2-ylmethyl]-4,5-dihydro-2H-furo[2,3-g]indazole-7-carboxamide], for which the “Weight distribution (% weight on injected paw) mean +/- SD” value is reported as 60 +/− 21 (not significant vs. vehicle group) % in experiment [1] (3x 20 mg p.o., vehicle 43 +/- 20, not significant vs. vehicle group) and 83 +/− 18 (significant vs. vehicle group) % in experiment [1] (3x 60 mg p.o., vehicle 43 +/- 20, significant vs. vehicle group). For the same compound, the weight gain entry in the experiment with rat DHT-PCOS model (DHT driven rat PCOS model) is on record as “gained less weight compared to the untreated control”. The “Relative weight vs. Vehicle control” value with rat DHT-PCOS model (rat DHT-PCOS model, p.o. 60 mg/kg morning dose + s.c. 60 mg/kg evening dose, DHT-Vehicle group 111%) is given as 103% * (significant vs. Also, the pIC50 (as a rule, the IC50 on a negative log10 scale, so that one unit is a factor of ten) on human GPR84 receptor is 6.96.
